1 molecule from PMC6017357, “In Vitro Inhibitory Effects of Synthetic Cannabinoid EAM-2201 on Cytochrome P450 and UDP-Glucuronosyltransferase Enzyme Activities in Human Liver Microsomes” (Molecules : A Journal of Synthetic Chemistry and Natural …, 2018) can be followed below.

This data set addresses T1, CYP2B6 (Homo sapiens, UniProt P20813).
T1 construct: from tissue; host or cells: ultrapooled human liver microsomes
T1 sequence (P20813 1-491): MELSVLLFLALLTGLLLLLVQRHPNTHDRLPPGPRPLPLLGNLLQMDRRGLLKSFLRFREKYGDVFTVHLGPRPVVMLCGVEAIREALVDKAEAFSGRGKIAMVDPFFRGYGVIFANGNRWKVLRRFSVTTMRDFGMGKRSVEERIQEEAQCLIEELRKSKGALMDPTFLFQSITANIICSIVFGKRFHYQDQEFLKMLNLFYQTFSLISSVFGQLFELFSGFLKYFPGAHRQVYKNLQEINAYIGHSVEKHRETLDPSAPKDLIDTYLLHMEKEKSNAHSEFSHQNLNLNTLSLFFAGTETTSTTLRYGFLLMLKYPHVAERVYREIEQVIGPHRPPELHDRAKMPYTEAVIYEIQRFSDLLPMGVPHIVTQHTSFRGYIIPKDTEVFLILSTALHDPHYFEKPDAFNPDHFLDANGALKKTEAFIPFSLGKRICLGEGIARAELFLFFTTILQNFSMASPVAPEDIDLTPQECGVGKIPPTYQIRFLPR
As to the kind of experiment: CYP2B6-mediated bupropion hydroxylation in pooled human liver microsomes. The settings on record: up to 50 µM, without 30-min preincubation. Format: in vitro ADME. As to the method:
The inhibitory effects (IC50 values) of EAM-2201 on CYP2B6-catalyzed bupropion 4-hydroxylase activity were determined in ultrapooled human liver microsomes using LC-MS/MS [41]. Each incubation mixture was prepared in a total volume of 100 µL as follows: pooled human liver microsomes (5.2 pmol CYP), 1.0 mM NADPH, 10 mM magnesium chloride, 50 mM potassium phosphate buffer (pH 7.4), various concentrations of EAM-2201 in DMSO (final 0.1–50 µM, 0.5% DMSO) and CYP2B6-selective substrate and 50 µM bupropion. After a 3-min preincubation at 37 °C, reactions were initiated by adding NADPH, followed by incubation for 15 min at 37 °C in a shaking water bath. […] Aliquots (5 µL) of the diluted supernatants were analyzed by LC-MS/MS. […]
The metabolites formed from CYP substrates were simultaneously quantified using our previously described LC-MS/MS method. […] Quantification was performed by selected reaction monitoring (SRM) of the [M + H]^+ ion and the related product ion for each metabolite: acetaminophen, 152.1 > 110.3; N-desethylamodiaquine, 328.1 > 283.0; 7-hydroxycoumarin, 163.0 > 107.2; 4-hydroxybupropion, 256.1 > 238.0; 4′-hydroxydiclofenac, 312.0 > 231.1; 4′-hydroxy-mephenytoin, 235.1 > 150.1; 1′-hydroxybufuralol, 278.1 > 186.1; 1′-hydroxymidazolam, 341.9 > 324.0; ^13C2,^15N-acetaminophen, 155.1 > 111.2; and d9-1′-hydroxybufuralol, 287.2 > 187.0. […]

For the molecule `CCc1ccc(C(=O)c2cn(CCCCCF)c3ccccc23)c2ccccc12` [EAM-2201, (4-ethyl-1-naphthalenyl)[1-(5-fluoropentyl)-1H-indol-3-yl]-methanone], the “inhibition of CYP2B6-mediated bupropion hydroxylation” value is given as “negligibly inhibited”.
